We go through 3 compounds from the kinase profiling compilation of Christmann-Franck et al. (2016).

Each structure is given as a SMILES string. Values joined by “and” are separate entries in the source; they are usually repeats but may differ in a detail not shown here. Equal entries are not always repeated.

Chain of GRK7 (human) (Q8WTQ7 whole entry, looked up): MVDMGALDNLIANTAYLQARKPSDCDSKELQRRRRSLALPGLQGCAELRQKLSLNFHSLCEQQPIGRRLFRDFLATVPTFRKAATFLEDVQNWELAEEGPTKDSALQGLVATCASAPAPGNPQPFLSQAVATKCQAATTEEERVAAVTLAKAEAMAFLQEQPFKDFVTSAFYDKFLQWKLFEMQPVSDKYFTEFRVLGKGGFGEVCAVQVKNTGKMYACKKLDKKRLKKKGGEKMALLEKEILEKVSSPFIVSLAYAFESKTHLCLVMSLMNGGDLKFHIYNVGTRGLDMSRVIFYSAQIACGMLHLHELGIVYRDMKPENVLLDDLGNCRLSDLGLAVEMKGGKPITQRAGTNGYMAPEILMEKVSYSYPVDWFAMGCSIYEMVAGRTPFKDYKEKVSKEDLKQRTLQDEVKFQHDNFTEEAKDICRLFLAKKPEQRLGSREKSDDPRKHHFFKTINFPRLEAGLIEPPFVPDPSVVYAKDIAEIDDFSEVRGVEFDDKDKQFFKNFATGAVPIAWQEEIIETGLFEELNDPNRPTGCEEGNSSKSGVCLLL

In one assay the target is CDK9 CCNT1 (human) (UniProt P50750+O60563). The assay is described as follows: radiometric filter-binding kinase assay, Kinase HotSpot. The conditions noted are these: compound 0.5 µM; ATP 10 µM.
Chain of CDK9 CCNT1 (human) (O60563 whole entry, looked up): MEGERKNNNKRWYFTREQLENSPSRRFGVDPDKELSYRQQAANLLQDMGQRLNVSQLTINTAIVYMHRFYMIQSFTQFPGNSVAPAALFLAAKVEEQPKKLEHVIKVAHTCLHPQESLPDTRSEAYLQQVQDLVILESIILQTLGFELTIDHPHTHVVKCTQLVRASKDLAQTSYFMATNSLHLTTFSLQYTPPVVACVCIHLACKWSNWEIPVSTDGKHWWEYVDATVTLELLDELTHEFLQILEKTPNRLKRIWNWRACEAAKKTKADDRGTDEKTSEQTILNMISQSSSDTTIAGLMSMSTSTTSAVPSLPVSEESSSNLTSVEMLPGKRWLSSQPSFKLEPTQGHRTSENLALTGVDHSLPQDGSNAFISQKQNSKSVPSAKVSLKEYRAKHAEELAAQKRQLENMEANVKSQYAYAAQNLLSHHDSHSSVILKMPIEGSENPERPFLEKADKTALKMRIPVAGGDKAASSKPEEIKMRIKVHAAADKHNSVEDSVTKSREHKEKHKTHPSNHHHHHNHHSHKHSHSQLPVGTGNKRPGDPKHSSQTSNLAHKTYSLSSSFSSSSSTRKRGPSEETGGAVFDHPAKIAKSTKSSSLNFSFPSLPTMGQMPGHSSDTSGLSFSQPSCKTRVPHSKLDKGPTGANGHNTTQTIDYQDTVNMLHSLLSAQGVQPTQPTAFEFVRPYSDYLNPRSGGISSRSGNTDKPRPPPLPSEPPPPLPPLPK
Chain of CDK9 CCNT1 (human) (P50750 whole entry, looked up): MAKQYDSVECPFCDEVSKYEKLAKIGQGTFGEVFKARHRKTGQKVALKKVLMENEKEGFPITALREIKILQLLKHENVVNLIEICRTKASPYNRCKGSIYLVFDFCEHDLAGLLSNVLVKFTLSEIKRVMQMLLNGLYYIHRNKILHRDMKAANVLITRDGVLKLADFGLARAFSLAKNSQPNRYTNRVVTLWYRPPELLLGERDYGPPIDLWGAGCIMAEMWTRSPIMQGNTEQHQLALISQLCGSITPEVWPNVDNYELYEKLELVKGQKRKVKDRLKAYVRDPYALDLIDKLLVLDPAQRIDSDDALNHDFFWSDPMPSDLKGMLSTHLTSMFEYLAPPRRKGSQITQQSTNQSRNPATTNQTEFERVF
For orientation: residual activity means the signal under treatment as a percentage of the control signal. On to `COc1ccc(OC)c2c(=S)c3ccccc3[nH]c12`, for which the residual activity worked out at 98.8%.

For the compound `O=C1NC(=O)/C(=C\c2ccc3nccnc3c2)S1`, the residual activity is 87.7%.

For the compound `CC(C)c1nn(-c2c(Cl)cccc2Cl)c2nc(Cc3ccc(OCCO)cc3)nc(O)c12`, the residual activity came to 22.7%.

The target of a further assay is LTK (human) (UniProt P29376). Described as above. Particulars: compound 0.5 µM; ATP 10 µM.
Chain of LTK (human) (P29376 whole entry, looked up): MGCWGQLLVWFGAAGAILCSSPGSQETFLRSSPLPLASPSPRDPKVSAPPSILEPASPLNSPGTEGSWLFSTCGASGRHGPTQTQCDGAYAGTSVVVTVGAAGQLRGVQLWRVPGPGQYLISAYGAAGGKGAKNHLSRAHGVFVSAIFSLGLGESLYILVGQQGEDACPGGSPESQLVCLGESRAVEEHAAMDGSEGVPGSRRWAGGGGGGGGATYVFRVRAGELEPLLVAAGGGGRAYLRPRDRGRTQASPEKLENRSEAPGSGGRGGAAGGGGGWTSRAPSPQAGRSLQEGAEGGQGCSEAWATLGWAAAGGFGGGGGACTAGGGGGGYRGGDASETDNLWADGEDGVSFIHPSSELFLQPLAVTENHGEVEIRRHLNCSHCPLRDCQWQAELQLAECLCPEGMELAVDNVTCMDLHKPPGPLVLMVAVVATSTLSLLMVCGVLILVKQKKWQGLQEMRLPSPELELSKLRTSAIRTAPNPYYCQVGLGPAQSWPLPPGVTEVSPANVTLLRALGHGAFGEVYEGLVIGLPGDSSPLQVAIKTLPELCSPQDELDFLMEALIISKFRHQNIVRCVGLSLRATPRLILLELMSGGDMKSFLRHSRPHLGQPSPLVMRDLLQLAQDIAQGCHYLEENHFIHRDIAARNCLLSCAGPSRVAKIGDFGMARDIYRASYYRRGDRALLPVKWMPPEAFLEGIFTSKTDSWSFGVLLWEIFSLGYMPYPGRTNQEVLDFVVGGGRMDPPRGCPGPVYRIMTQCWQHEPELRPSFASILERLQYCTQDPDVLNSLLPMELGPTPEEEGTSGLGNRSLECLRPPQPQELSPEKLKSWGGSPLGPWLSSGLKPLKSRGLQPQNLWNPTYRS
On to `COc1ccc(OC)c2c(=S)c3ccccc3[nH]c12`, for which the residual activity came to 84.5%.

For the compound `O=C1NC(=O)/C(=C\c2ccc3nccnc3c2)S1`, the residual activity was 94.7%.

For `CC(C)c1nn(-c2c(Cl)cccc2Cl)c2nc(Cc3ccc(OCCO)cc3)nc(O)c12`, the residual activity came to 87.4%.

A further assay has as its target TGFBR1 (human) (UniProt P36897). The description is as above. Particulars: compound 0.5 µM; ATP 10 µM.
Take `COc1ccc(OC)c2c(=S)c3ccccc3[nH]c12`: the residual activity is 99.1%.

`O=C1NC(=O)/C(=C\c2ccc3nccnc3c2)S1`: the residual activity amounted to 98.5%.

For the compound `CC(C)c1nn(-c2c(Cl)cccc2Cl)c2nc(Cc3ccc(OCCO)cc3)nc(O)c12`, the residual activity was found to be 98%.

Another assay addresses NEK7 (human) (UniProt Q8TDX7). Described as above. The conditions noted are these: compound 0.5 µM; ATP 10 µM.
Consider `COc1ccc(OC)c2c(=S)c3ccccc3[nH]c12`, for which the residual activity is 97.2%.

For the compound `O=C1NC(=O)/C(=C\c2ccc3nccnc3c2)S1`, the residual activity came out at 105%.

Regarding `CC(C)c1nn(-c2c(Cl)cccc2Cl)c2nc(Cc3ccc(OCCO)cc3)nc(O)c12`, the residual activity was 94%.

In a further assay the target is PRKD3 (human) (UniProt O94806). Described as above. Particulars: compound 0.5 µM; ATP 10 µM.
Regarding `COc1ccc(OC)c2c(=S)c3ccccc3[nH]c12`, the residual activity stood at 94.1%.

For `O=C1NC(=O)/C(=C\c2ccc3nccnc3c2)S1`, the residual activity was found to be 94.7%.

On to `CC(C)c1nn(-c2c(Cl)cccc2Cl)c2nc(Cc3ccc(OCCO)cc3)nc(O)c12`, for which the residual activity stood at 92.3%.

The next assay deals with IKBKB (human) (UniProt O14920). The assay is described as above. The conditions noted are these: compound 0.5 µM; ATP 10 µM.
Take `COc1ccc(OC)c2c(=S)c3ccccc3[nH]c12`: the residual activity was found to be 103%.

On to `O=C1NC(=O)/C(=C\c2ccc3nccnc3c2)S1`, for which the residual activity was found to be 96.1%.

As for `CC(C)c1nn(-c2c(Cl)cccc2Cl)c2nc(Cc3ccc(OCCO)cc3)nc(O)c12`, the residual activity was 103%.

The next assay addresses CDK2 CCNE1 (human) (UniProt P24941+P24864). Described as above. Particulars: compound 0.5 µM; ATP 10 µM.
`COc1ccc(OC)c2c(=S)c3ccccc3[nH]c12`: the residual activity worked out at 77.9%.

As to `O=C1NC(=O)/C(=C\c2ccc3nccnc3c2)S1`, the residual activity is 91.8%.

On to `CC(C)c1nn(-c2c(Cl)cccc2Cl)c2nc(Cc3ccc(OCCO)cc3)nc(O)c12`, for which the residual activity stood at 8.6%.

Another assay deals with SIK2 (human) (UniProt Q9H0K1). The assay is described as above. The conditions noted are these: compound 0.5 µM; ATP 10 µM.
As to `COc1ccc(OC)c2c(=S)c3ccccc3[nH]c12`, the residual activity amounted to 114%.

Regarding `O=C1NC(=O)/C(=C\c2ccc3nccnc3c2)S1`, the residual activity stood at 102%.

Take `CC(C)c1nn(-c2c(Cl)cccc2Cl)c2nc(Cc3ccc(OCCO)cc3)nc(O)c12`: the residual activity worked out at 116%.

For another assay, the target named is IRAK1 (human) (UniProt P51617). Described as above. Particulars: compound 0.5 µM; ATP 10 µM.
For the compound `COc1ccc(OC)c2c(=S)c3ccccc3[nH]c12`, the residual activity stood at 91.1%.

Take `O=C1NC(=O)/C(=C\c2ccc3nccnc3c2)S1`: the residual activity is 85.5%.

With `CC(C)c1nn(-c2c(Cl)cccc2Cl)c2nc(Cc3ccc(OCCO)cc3)nc(O)c12`, the residual activity was determined as 99.2%.

The target in a further assay is DAPK1 (human) (UniProt P53355). Described as above. The conditions noted are these: compound 0.5 µM; ATP 10 µM.
Chain of DAPK1 (human) (P53355 whole entry, looked up): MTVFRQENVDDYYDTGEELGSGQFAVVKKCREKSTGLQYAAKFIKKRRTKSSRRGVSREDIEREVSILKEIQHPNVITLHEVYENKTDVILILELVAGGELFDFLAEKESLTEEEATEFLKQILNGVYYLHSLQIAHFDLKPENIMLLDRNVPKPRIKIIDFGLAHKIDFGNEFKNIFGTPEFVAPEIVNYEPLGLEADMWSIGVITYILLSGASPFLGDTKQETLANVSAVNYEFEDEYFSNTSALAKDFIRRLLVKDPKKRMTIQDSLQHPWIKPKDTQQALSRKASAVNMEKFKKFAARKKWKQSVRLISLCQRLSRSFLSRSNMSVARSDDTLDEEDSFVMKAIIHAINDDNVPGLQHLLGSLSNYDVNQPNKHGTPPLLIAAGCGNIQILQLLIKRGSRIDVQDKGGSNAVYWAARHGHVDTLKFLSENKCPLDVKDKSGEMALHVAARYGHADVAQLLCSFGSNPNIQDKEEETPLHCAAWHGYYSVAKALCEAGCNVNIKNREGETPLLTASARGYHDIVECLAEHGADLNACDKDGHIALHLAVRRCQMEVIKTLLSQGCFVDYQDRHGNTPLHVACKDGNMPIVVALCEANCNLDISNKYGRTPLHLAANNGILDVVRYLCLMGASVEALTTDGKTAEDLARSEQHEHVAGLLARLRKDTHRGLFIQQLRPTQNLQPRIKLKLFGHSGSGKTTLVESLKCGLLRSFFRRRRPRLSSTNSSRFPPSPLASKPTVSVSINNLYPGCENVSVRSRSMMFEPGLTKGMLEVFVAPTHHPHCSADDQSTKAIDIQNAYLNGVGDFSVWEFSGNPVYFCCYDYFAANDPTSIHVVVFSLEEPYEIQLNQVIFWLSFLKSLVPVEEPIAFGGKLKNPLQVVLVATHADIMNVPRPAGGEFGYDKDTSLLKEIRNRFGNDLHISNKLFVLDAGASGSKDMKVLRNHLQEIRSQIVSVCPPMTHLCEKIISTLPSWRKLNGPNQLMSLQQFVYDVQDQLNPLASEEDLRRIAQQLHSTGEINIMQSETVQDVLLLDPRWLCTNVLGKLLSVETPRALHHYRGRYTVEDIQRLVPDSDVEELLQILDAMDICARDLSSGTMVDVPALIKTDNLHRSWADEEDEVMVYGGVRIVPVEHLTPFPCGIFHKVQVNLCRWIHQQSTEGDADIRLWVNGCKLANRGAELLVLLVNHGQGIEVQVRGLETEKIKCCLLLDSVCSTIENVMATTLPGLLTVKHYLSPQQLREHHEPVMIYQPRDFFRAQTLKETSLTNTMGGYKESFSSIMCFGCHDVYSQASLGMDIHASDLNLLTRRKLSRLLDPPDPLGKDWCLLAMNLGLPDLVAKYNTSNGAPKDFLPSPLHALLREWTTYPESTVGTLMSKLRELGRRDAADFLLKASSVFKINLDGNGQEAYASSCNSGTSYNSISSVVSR
For the compound `COc1ccc(OC)c2c(=S)c3ccccc3[nH]c12`, the residual activity was found to be 106%.

Regarding `O=C1NC(=O)/C(=C\c2ccc3nccnc3c2)S1`, the residual activity turned out to be 105%.

For `CC(C)c1nn(-c2c(Cl)cccc2Cl)c2nc(Cc3ccc(OCCO)cc3)nc(O)c12`, the residual activity came to 99.5%.

The next assay concerns the target BMX (human) (UniProt P51813). Described as above. The conditions noted are these: compound 0.5 µM; ATP 10 µM.
In the case of `COc1ccc(OC)c2c(=S)c3ccccc3[nH]c12`, the residual activity was determined as 105%.

As for `O=C1NC(=O)/C(=C\c2ccc3nccnc3c2)S1`, the residual activity turned out to be 98.6%.

Consider `CC(C)c1nn(-c2c(Cl)cccc2Cl)c2nc(Cc3ccc(OCCO)cc3)nc(O)c12`, for which the residual activity is 104%.

Another assay deals with RPS6KA4 KD2 (human) (UniProt O75676). The assay is described as above. The conditions noted are these: compound 0.5 µM; ATP 10 µM.
As to `COc1ccc(OC)c2c(=S)c3ccccc3[nH]c12`, the residual activity was found to be 93.5%.

Regarding `O=C1NC(=O)/C(=C\c2ccc3nccnc3c2)S1`, the residual activity stood at 115%.

With `CC(C)c1nn(-c2c(Cl)cccc2Cl)c2nc(Cc3ccc(OCCO)cc3)nc(O)c12`, the residual activity worked out at 95.3%.

The target in a further assay is NEK6 (human) (UniProt Q9HC98). Described as above. The conditions noted are these: compound 0.5 µM; ATP 10 µM.
Consider `COc1ccc(OC)c2c(=S)c3ccccc3[nH]c12`, for which the residual activity amounted to 101%.

For the compound `O=C1NC(=O)/C(=C\c2ccc3nccnc3c2)S1`, the residual activity turned out to be 109%.

In the case of `CC(C)c1nn(-c2c(Cl)cccc2Cl)c2nc(Cc3ccc(OCCO)cc3)nc(O)c12`, the residual activity amounted to 105%.

The next assay deals with EPHA2 (human) (UniProt P29317). The assay is described as above. The conditions noted are these: compound 0.5 µM; ATP 10 µM.
Chain of EPHA2 (human) (P29317 whole entry, looked up): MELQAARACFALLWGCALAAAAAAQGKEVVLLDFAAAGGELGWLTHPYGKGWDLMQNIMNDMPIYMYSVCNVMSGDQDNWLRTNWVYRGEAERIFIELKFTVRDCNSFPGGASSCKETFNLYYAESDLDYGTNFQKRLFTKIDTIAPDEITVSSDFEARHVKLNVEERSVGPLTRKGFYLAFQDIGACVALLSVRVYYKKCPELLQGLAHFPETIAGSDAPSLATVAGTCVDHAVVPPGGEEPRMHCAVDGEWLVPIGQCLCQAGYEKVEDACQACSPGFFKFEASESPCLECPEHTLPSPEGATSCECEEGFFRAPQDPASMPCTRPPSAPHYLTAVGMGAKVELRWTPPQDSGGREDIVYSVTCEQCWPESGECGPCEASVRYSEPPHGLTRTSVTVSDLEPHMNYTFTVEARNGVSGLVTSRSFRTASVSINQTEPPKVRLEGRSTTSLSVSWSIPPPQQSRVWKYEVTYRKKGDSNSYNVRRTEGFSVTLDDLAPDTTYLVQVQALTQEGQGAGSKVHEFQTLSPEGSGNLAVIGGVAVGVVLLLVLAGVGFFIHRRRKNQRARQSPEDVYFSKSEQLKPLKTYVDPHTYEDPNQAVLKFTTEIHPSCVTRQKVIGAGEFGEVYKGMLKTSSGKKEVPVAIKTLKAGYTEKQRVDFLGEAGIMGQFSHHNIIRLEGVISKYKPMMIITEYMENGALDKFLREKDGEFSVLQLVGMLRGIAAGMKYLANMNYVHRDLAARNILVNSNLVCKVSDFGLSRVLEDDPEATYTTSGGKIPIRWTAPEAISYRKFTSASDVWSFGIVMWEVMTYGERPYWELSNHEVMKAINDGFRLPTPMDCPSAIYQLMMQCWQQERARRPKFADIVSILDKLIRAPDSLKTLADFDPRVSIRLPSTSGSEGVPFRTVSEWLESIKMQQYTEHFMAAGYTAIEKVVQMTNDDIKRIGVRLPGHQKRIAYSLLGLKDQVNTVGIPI
For the compound `COc1ccc(OC)c2c(=S)c3ccccc3[nH]c12`, the residual activity was 100%.

In the case of `O=C1NC(=O)/C(=C\c2ccc3nccnc3c2)S1`, the residual activity is 99.9%.

As for `CC(C)c1nn(-c2c(Cl)cccc2Cl)c2nc(Cc3ccc(OCCO)cc3)nc(O)c12`, the residual activity was found to be 100%.

For another assay, the target named is PNCK (human) (UniProt Q6P2M8). Described as above. The conditions noted are these: compound 0.5 µM; ATP 10 µM.
Take `COc1ccc(OC)c2c(=S)c3ccccc3[nH]c12`: the residual activity is 97.3%.

For `O=C1NC(=O)/C(=C\c2ccc3nccnc3c2)S1`, the residual activity stood at 101%.

As for `CC(C)c1nn(-c2c(Cl)cccc2Cl)c2nc(Cc3ccc(OCCO)cc3)nc(O)c12`, the residual activity was 94.3%.

In a further assay the target is LYN (human) (UniProt P07948). Described as above. Particulars: compound 0.5 µM; ATP 10 µM.
Regarding `COc1ccc(OC)c2c(=S)c3ccccc3[nH]c12`, the residual activity is 106% and 96.9%.

For the compound `O=C1NC(=O)/C(=C\c2ccc3nccnc3c2)S1`, the residual activity was 99.2% and 99.6%.

Regarding `CC(C)c1nn(-c2c(Cl)cccc2Cl)c2nc(Cc3ccc(OCCO)cc3)nc(O)c12`, the residual activity was 102% and 92.7%.

For a further assay, the target named is BLK (human) (UniProt P51451). The description is as above. Particulars: compound 0.5 µM; ATP 10 µM.
Take `COc1ccc(OC)c2c(=S)c3ccccc3[nH]c12`: the residual activity came to 96.5%.

In the case of `O=C1NC(=O)/C(=C\c2ccc3nccnc3c2)S1`, the residual activity amounted to 99.4%.

As for `CC(C)c1nn(-c2c(Cl)cccc2Cl)c2nc(Cc3ccc(OCCO)cc3)nc(O)c12`, the residual activity is 98.8%.

Another assay has as its target TGFBR2 (human) (UniProt P37173). The description is as above. Particulars: compound 0.5 µM; ATP 10 µM.
Regarding `COc1ccc(OC)c2c(=S)c3ccccc3[nH]c12`, the residual activity is 109%.

For the compound `O=C1NC(=O)/C(=C\c2ccc3nccnc3c2)S1`, the residual activity amounted to 108%.

As to `CC(C)c1nn(-c2c(Cl)cccc2Cl)c2nc(Cc3ccc(OCCO)cc3)nc(O)c12`, the residual activity was 74.3%.

The target of a further assay is MYLK (human) (UniProt Q15746). Described as above. Particulars: compound 0.5 µM; ATP 10 µM.
In the case of `COc1ccc(OC)c2c(=S)c3ccccc3[nH]c12`, the residual activity came out at 89.8%.

Take `O=C1NC(=O)/C(=C\c2ccc3nccnc3c2)S1`: the residual activity is 97.1%.

For `CC(C)c1nn(-c2c(Cl)cccc2Cl)c2nc(Cc3ccc(OCCO)cc3)nc(O)c12`, the residual activity was 98.3%.

The next assay addresses GRK7 (human) (UniProt Q8WTQ7). The assay is described as above. The conditions noted are these: compound 0.5 µM; ATP 10 µM.
Turning to `COc1ccc(OC)c2c(=S)c3ccccc3[nH]c12`, the residual activity was determined as 102%.

As for `O=C1NC(=O)/C(=C\c2ccc3nccnc3c2)S1`, the residual activity worked out at 99.8%.

Regarding `CC(C)c1nn(-c2c(Cl)cccc2Cl)c2nc(Cc3ccc(OCCO)cc3)nc(O)c12`, the residual activity amounted to 106%.

The next assay concerns the target CDK4 CCND3 (human) (UniProt P30281+P11802). The description is as above. Particulars: compound 0.5 µM; ATP 10 µM.
For `COc1ccc(OC)c2c(=S)c3ccccc3[nH]c12`, the residual activity was found to be 95.5%.

Turning to `O=C1NC(=O)/C(=C\c2ccc3nccnc3c2)S1`, the residual activity stood at 93.9%.

Take `CC(C)c1nn(-c2c(Cl)cccc2Cl)c2nc(Cc3ccc(OCCO)cc3)nc(O)c12`: the residual activity stood at 45.6%.
